The supplement of paper PMC10307832

What was measured:
Test in all cases: relative viability (nuclei count vs DMSO), 5 days (fraction); higher = more cells survive
Alisertib = compound: COc1cc(Nc2ncc3c(n2)-c2ccc(Cl)cc2C(c2c(F)cccc2OC)=NC3)ccc1C(=O)O [Alisertib]
Outline: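 Vehicle-anchored 1536-well plates of lung cancer cell lines, held overnight at 37 °C, were pinned with five library-drug doses (not always all listed) spaced by √10. No medium change followed over the next 5 days, after which the cells were fixed, permeabilised and Hoechst-stained together and imaged at 4×. Nuclei were counted with MetaXpress, and viability is treated-well nuclei over vehicle-well nuclei, taken as a median across plates. Plates passed with control CV below 25% and at least one doubling.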

Alisertib + Navitoclax = compound: COc1cc(Nc2ncc3c(n2)-c2ccc(Cl)cc2C(c2c(F)cccc2OC)=NC3)ccc1C(=O)O [Alisertib] + CC1(C)CCC(c2ccc(Cl)cc2)=C(CN2CCN(c3ccc(C(=O)NS(=O)(=O)c4ccc(N[C@H](CCN5CCOCC5)CSc5ccccc5)c(S(=O)(=O)C(F)(F)F)c4)cc3)CC2)C1 [Navitoclax] (partner 0.5 µM)
Outline: (§1)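 Cells from lung cancer lines were seeded into 1536-well plates and, one day later, dosed by pin tool. Treatments were either a single drug or a fixed dose of an anchor drug with five library-drug doses (not always all listed) in √10 steps. After 5 days, nuclei were stained in a one-step fixation (final 0.05% Triton X-100, 1% formaldehyde, 1 ug/ml Hoechst) and counted on 4× images, and relative viability is the treated-to-vehicle nuclei ratio, as the median of duplicate plates.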

Alisertib + Tozasertib = compound: COc1cc(Nc2ncc3c(n2)-c2ccc(Cl)cc2C(c2c(F)cccc2OC)=NC3)ccc1C(=O)O [Alisertib] + Cc1cc(Nc2cc(N3CCN(C)CC3)nc(Sc3ccc(NC(=O)C4CC4)cc3)n2)n[nH]1 [Tozasertib] (partner 0.1 µM)
Outline: as §1

Alisertib + Phenformin = compound: COc1cc(Nc2ncc3c(n2)-c2ccc(Cl)cc2C(c2c(F)cccc2OC)=NC3)ccc1C(=O)O [Alisertib] + N=C(N)NC(=N)NCCc1ccccc1 [Phenformin] (partner 250 µM)
Outline: as §1

Row | Cell Line | relative viability (Alisertib; 0.005 µM) | relative viability (Alisertib; 0.01581 µM) | relative viability (Alisertib; 0.05 µM) | relative viability (Alisertib; 0.1581 µM) | relative viability (Alisertib; 0.5 µM) | relative viability (Alisertib + Navitoclax; first compound 0.005 µM) | relative viability (Alisertib + Navitoclax; first compound 0.01581 µM) | relative viability (Alisertib + Navitoclax; first compound 0.05 µM) | relative viability (Alisertib + Navitoclax; first compound 0.1581 µM) | relative viability (Alisertib + Navitoclax; first compound 0.5 µM) | relative viability (Alisertib + Tozasertib; first compound 0.005 µM) | relative viability (Alisertib + Tozasertib; first compound 0.01581 µM) | relative viability (Alisertib + Tozasertib; first compound 0.05 µM) | relative viability (Alisertib + Tozasertib; first compound 0.1581 µM) | relative viability (Alisertib + Tozasertib; first compound 0.5 µM) | relative viability (Alisertib + Phenformin; first compound 0.005 µM) | relative viability (Alisertib + Phenformin; first compound 0.01581 µM) | relative viability (Alisertib + Phenformin; first compound 0.05 µM) | relative viability (Alisertib + Phenformin; first compound 0.1581 µM) | relative viability (Alisertib + Phenformin; first compound 0.5 µM)
1 | LCLC-97TM1 | 0.931 | 0.791 | 0.496 | 0.137 | 0.121 | 0.523 | 0.353 | 0.121 | 0.116 | 0.115 | 0.203 | 0.185 | 0.166 | 0.181 | 0.149 | 0.451 | 0.386 | 0.333 | 0.174 | 0.153
2 | LK-2 | 0.962 | 0.853 | 0.497 | 0.297 | 0.202 | 0.859 | 0.722 | 0.356 | 0.181 | 0.225 | 0.167 | 0.184 | 0.164 | 0.197 | 0.185 | 0.38 | 0.385 | 0.179 | 0.149 | 0.163
3 | LOU-NH91 | 0.938 | 0.958 | 0.734 | 0.478 | 0.398 | 0.79 | 0.731 | 0.551 | 0.326 | 0.271 | 0.656 | 0.652 | 0.47 | 0.364 | 0.337 | 0.582 | 0.668 | 0.508 | 0.372 | 0.32
4 | LU99A | 0.961 | 0.853 | 0.579 | 0.288 | 0.193 | 0.846 | 0.634 | 0.206 | 0.211 | 0.123 | 0.276 | 0.272 | 0.219 | 0.216 | 0.203 | 0.755 | 0.798 | 0.658 | 0.3 | 0.239
5 | LXF-289 | 0.844 | 0.672 | 0.46 | 0.183 | 0.195 | 0.847 | 0.586 | 0.191 | 0.173 | 0.137 | 0.169 | 0.14 | 0.128 | 0.141 | 0.0869 | 0.434 | 0.338 | 0.325 | 0.114 | 0.109
6 | NCI-H23 | 0.752 | 0.529 | 0.272 | 0.217 | 0.197 | 0.677 | 0.562 | 0.334 | 0.175 | 0.143 | 0.27 | 0.249 | 0.165 | 0.208 | 0.15 | 0.666 | 0.512 | 0.518 | 0.233 | 0.163
7 | NCI-H322M | 0.874 | 0.894 | 0.812 | 0.501 | 0.493 | 1.16 | 1.3 | 1.13 | 0.576 | 0.35 | 0.394 | 0.491 | 0.506 | 0.453 | 0.509 | 0.683 | 0.793 | 0.572 | 0.412 | 0.409
8 | NCI-H441 | 0.839 | 0.662 | 0.201 | 0.179 | 0.188 | 0.925 | 0.365 | 0.106 | 0.158 | 0.132 | 0.478 | 0.366 | 0.253 | 0.286 | 0.227 | 0.755 | 0.444 | 0.2 | 0.255 | 0.249
9 | NCI-H460 | 0.922 | 0.844 | 0.49 | 0.0862 | 0.0474 | 1.13 | 0.815 | 0.471 | 0.0264 | 0.0172 | 0.477 | 0.428 | 0.0521 | 0.0419 | 0.0268 | 0.474 | 0.343 | 0.0695 | 0.0235 | 0.0304
10 | NCI-H520 | 0.843 | 0.722 | 0.462 | 0.451 | 0.317 | 1.19 | 0.66 | 0.386 | 0.272 | 0.251 | 0.372 | 0.418 | 0.376 | 0.409 | 0.357 | 0.552 | 0.395 | 0.275 | 0.318 | 0.2
11 | NCI-H596 | 0.882 | 1 | 1.07 | 0.816 | 0.4 |  | 0.906 | 1.07 | 0.808 | 0.199 | 0.825 | 0.878 | 0.779 | 0.592 | 0.314 | 0.675 | 0.875 | 0.759 | 0.822 | 0.393
12 | NCI-H647 | 0.733 | 0.654 | 0.318 | 0.152 | 0.0801 | 1.05 | 1.06 | 0.293 | 0.169 | 0.0658 | 0.345 | 0.261 | 0.125 | 0.152 | 0.101 | 0.456 | 0.336 | 0.168 | 0.0894 | 0.0773
13 | NCI-H727 | 0.817 | 0.929 | 0.542 | 0.384 | 0.401 | 0.389 | 0.477 | 0.183 | 0.166 | 0.152 | 0.411 | 0.598 | 0.486 | 0.494 | 0.404 | 0.514 | 0.504 | 0.262 | 0.276 | 0.352
14 | NCI-H838 | 0.833 | 0.831 | 0.617 | 0.313 | 0.191 | 1.12 | 1.1 | 0.667 | 0.306 | 0.169 | 0.272 | 0.262 | 0.231 | 0.195 | 0.201 | 0.444 | 0.446 | 0.276 | 0.183 | 0.144
15 | NCI-H1355 | 0.881 | 0.771 | 0.774 | 0.255 | 0.204 | 0.884 | 0.923 | 0.633 | 0.205 | 0.16 | 0.53 | 0.462 | 0.297 | 0.192 | 0.217 | 0.4 | 0.353 | 0.23 | 0.182 | 0.189
16 | NCI-H1395 | 0.877 | 0.862 | 0.535 | 0.452 | 0.394 | 1.12 | 1.12 | 0.935 | 0.459 | 0.471 | 0.725 | 0.708 | 0.488 | 0.478 | 0.391 | 0.427 | 0.413 | 0.44 | 0.358 | 0.329
